Laboratory results from PubChem BioAssay (NCI).
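Values below derive from 48-hour exposures of cells grown in 96-well plates, with endpoints linearly interpolated between the two concentrations bracketing the appropriate inhibition level. The concentration for full growth arrest is given as TGI.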

Tests used:
Assay in all cases: NCI tumour cell line growth inhibition, 48 h
UACC-62 melanoma = test system: UACC-62 melanoma
NCI-H522 lung = test system: NCI-H522 lung
SK-MEL-28 melanoma = test system: SK-MEL-28 melanoma
SF-295 CNS = test system: SF-295 CNS
MDA-MB-231 breast = test system: MDA-MB-231 breast
NCI/ADR-RES ovarian = test system: NCI/ADR-RES ovarian
CCRF-CEM leukemia = test system: CCRF-CEM leukemia
SK-MEL-2 melanoma = test system: SK-MEL-2 melanoma
K-562 leukemia = test system: K-562 leukemia
MDA-N = test system: MDA-N
OVCAR-8 ovarian = test system: OVCAR-8 ovarian
RPMI-8226 leukemia = test system: RPMI-8226 leukemia
LOX IMVI melanoma = test system: LOX IMVI melanoma
CAKI-1 renal = test system: CAKI-1 renal
786-0 renal = test system: 786-0 renal
NCI-H23 lung = test system: NCI-H23 lung
TK-10 renal = test system: TK-10 renal
SF-268 CNS = test system: SF-268 CNS
HCT-15 colon = test system: HCT-15 colon
RXF 393 renal = test system: RXF 393 renal
SNB-19 CNS = test system: SNB-19 CNS
SK-OV-3 ovarian = test system: SK-OV-3 ovarian
HCT-116 colon = test system: HCT-116 colon
KM12 colon = test system: KM12 colon
OVCAR-5 ovarian = test system: OVCAR-5 ovarian
M14 melanoma = test system: M14 melanoma
COLO 205 colon = test system: COLO 205 colon
A498 renal = test system: A498 renal
MCF7 breast = test system: MCF7 breast
T-47D breast = test system: T-47D breast
HCC-2998 colon = test system: HCC-2998 colon
U251 CNS = test system: U251 CNS
SK-MEL-5 melanoma = test system: SK-MEL-5 melanoma
NCI-H460 lung = test system: NCI-H460 lung
IGROV1 ovarian = test system: IGROV1 ovarian
SN12C renal = test system: SN12C renal
HS 578T breast = test system: HS 578T breast
SR leukemia = test system: SR leukemia
MALME-3M melanoma = test system: MALME-3M melanoma
MDA-MB-435 = test system: MDA-MB-435
PC-3 prostate = test system: PC-3 prostate
HOP-62 NSCLC = test system: HOP-62 NSCLC
EKVX NSCLC = test system: EKVX NSCLC
HT29 colon = test system: HT29 colon
SNB-75 CNS = test system: SNB-75 CNS
HOP-92 NSCLC = test system: HOP-92 NSCLC
UO-31 renal = test system: UO-31 renal
A549 NSCLC = test system: A549 NSCLC
UACC-257 melanoma = test system: UACC-257 melanoma
DU-145 prostate = test system: DU-145 prostate
NCI-H226 lung = test system: NCI-H226 lung
ACHN renal = test system: ACHN renal
HL-60(TB) leukemia = test system: HL-60(TB) leukemia
MOLT-4 leukemia = test system: MOLT-4 leukemia
OVCAR-4 ovarian = test system: OVCAR-4 ovarian

COC(C[C@H]1CCCC[C@]1(O)/C(=C\CO[Si](C(C)C)(C(C)C)C(C)C)Sc1ccccc1)OC
TGI (UACC-62 melanoma): > 100 µM
TGI (NCI-H522 lung): 39.6 µM
TGI (SK-MEL-28 melanoma): > 100 µM
TGI (SF-295 CNS): > 100 µM
TGI (MDA-MB-231 breast): 49.8 µM
TGI (NCI/ADR-RES ovarian): > 100 µM
TGI (CCRF-CEM leukemia): > 100 µM
TGI (SK-MEL-2 melanoma): 49.9 µM
TGI (K-562 leukemia): > 100 µM
TGI (MDA-N): > 100 µM
TGI (OVCAR-8 ovarian): > 100 µM
TGI (RPMI-8226 leukemia): 38.4 µM
TGI (LOX IMVI melanoma): 37.5 µM
TGI (CAKI-1 renal): > 100 µM
TGI (786-0 renal): > 100 µM
TGI (NCI-H23 lung): > 100 µM
TGI (TK-10 renal): > 100 µM
TGI (SF-268 CNS): > 100 µM
TGI (HCT-15 colon): 60 µM
TGI (RXF 393 renal): 55.3 µM
TGI (SNB-19 CNS): > 100 µM
TGI (SK-OV-3 ovarian): > 100 µM
TGI (HCT-116 colon): 85.1 µM
TGI (KM12 colon): > 100 µM
TGI (OVCAR-5 ovarian): > 100 µM
TGI (M14 melanoma): > 100 µM
TGI (COLO 205 colon): 47.4 µM
TGI (A498 renal): > 100 µM
TGI (MCF7 breast): > 100 µM
TGI (T-47D breast): 40.8 µM
TGI (HCC-2998 colon): 34.2 µM
TGI (U251 CNS): 51.8 µM
TGI (SK-MEL-5 melanoma): > 100 µM
TGI (NCI-H460 lung): > 100 µM
TGI (IGROV1 ovarian): > 100 µM
TGI (SN12C renal): > 100 µM
TGI (HS 578T breast): > 100 µM
TGI (SR leukemia): 46.5 µM
TGI (MALME-3M melanoma): 86.4 µM
TGI (MDA-MB-435): > 100 µM
TGI (PC-3 prostate): > 100 µM
TGI (HOP-62 NSCLC): > 100 µM
TGI (EKVX NSCLC): > 100 µM
TGI (HT29 colon): > 100 µM
TGI (SNB-75 CNS): 98.9 µM
TGI (HOP-92 NSCLC): 68.8 µM
TGI (UO-31 renal): > 100 µM
TGI (A549 NSCLC): > 100 µM
TGI (UACC-257 melanoma): > 100 µM
TGI (DU-145 prostate): > 100 µM
TGI (NCI-H226 lung): 62.4 µM
TGI (ACHN renal): > 100 µM
TGI (HL-60(TB) leukemia): > 100 µM
TGI (MOLT-4 leukemia): 38.8 µM
TGI (OVCAR-4 ovarian): > 100 µM
